Laboratory results reported in patent US9624233B2, “Compounds for treating pruritic conditions” (priority 2015, dated 2017).

Legend:
Conditions in all cases: 2.5E−05M
α2C (h) = target: T1, α2C (h) (Homo sapiens, UniProt P18825); test: Abuse liability binding screen, α2C (h) (antagonist radioligand)
T1 sequence (P18825 1-462): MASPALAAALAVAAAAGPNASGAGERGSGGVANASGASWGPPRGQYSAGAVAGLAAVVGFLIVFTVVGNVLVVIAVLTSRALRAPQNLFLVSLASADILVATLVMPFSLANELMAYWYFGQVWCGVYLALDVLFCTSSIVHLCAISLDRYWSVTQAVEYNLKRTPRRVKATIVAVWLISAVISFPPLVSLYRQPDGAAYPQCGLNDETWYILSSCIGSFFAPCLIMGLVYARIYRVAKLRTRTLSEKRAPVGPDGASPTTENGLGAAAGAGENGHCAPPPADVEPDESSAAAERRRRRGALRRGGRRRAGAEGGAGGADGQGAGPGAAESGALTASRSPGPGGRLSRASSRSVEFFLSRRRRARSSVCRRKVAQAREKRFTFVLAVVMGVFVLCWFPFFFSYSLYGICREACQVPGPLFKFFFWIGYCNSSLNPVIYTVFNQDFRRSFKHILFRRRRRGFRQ
Description: (§1) […]. The abuse liability screen included 44 targets (receptors, transporters, on gated-channel systems) related to the dopamine, norepinephrine, serotonin, gamma-aminobutyric acid (GABA), acetylcholine, N-methyl-D-aspartate (NMDA) cannabinoid and opioid neurotransmitter systems as recommended in FDA Draft guidance on Assessment of Abuse Potential of Drugs, January 2010.
(§2) Compound binding was calculated as a % inhibition of the binding of a radioactively labeled ligand specific for each target.
(§3) Results showing an inhibition or stimulation higher than 50% are considered to represent significant effects of the test compounds.

M5 (h) = target: T2, M5 (h) (Homo sapiens, UniProt P08912); test: Abuse liability binding screen, M5 (h) receptor (antagonist radioligand)
T2 sequence (P08912 1-532): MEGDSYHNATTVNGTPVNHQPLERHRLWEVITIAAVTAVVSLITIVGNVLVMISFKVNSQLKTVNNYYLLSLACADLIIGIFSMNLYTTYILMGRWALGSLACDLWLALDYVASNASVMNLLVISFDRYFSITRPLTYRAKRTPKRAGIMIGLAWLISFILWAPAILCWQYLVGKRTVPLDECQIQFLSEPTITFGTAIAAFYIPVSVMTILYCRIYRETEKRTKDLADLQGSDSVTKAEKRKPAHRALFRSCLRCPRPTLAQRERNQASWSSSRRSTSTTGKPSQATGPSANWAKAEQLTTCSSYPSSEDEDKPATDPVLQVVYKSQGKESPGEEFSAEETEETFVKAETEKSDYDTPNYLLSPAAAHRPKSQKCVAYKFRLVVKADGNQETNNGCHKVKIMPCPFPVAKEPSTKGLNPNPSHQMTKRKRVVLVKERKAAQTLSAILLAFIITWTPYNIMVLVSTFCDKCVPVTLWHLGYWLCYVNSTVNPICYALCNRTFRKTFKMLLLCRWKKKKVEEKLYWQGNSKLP
Description: as §1, §2, §3

N neuronal α7 (h) = N neuronal α7 (h) (Homo sapiens, UniProt P36544); test: Abuse liability binding screen, N neuronal α7 (h) (antagonist radioligand)
Chain of N neuronal α7 (h) (P36544 23-502): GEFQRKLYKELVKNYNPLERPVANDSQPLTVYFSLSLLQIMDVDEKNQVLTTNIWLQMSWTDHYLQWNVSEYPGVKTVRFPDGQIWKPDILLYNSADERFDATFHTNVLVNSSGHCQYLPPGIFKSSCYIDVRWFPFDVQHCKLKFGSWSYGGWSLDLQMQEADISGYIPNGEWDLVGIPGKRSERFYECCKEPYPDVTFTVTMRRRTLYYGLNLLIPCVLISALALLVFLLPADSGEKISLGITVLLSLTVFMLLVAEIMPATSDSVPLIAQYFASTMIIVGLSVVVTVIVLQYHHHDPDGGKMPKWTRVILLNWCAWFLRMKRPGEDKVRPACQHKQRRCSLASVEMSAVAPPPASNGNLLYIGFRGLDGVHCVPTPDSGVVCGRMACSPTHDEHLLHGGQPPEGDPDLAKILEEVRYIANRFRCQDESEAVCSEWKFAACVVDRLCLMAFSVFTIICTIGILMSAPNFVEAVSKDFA
Description: as §1, §2, §3

δ2 (DOP) (h) = δ2 (DOP) (h) (Homo sapiens, UniProt P41143); test: Binding screen and IC50 determination, δ2 (DOP) (h) (agonist radioligand)
Chain of δ2 (DOP) (h) (P41143 whole entry): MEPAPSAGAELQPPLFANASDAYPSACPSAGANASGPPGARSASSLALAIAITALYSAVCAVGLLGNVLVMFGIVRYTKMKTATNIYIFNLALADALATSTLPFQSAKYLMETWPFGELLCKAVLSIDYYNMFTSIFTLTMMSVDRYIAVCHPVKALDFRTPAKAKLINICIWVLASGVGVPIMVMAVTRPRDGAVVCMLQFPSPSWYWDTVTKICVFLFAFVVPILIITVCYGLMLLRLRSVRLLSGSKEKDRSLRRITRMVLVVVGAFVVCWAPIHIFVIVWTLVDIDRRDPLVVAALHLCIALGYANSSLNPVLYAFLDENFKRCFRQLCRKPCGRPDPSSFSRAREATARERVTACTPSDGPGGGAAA
Description: as §2

OX1 (h) = target: T3, OX1 (h) (Homo sapiens, UniProt O43613); test: Abuse liability binding screen, OX1 (h) (agonist radioligand)
T3 sequence (O43613 1-425): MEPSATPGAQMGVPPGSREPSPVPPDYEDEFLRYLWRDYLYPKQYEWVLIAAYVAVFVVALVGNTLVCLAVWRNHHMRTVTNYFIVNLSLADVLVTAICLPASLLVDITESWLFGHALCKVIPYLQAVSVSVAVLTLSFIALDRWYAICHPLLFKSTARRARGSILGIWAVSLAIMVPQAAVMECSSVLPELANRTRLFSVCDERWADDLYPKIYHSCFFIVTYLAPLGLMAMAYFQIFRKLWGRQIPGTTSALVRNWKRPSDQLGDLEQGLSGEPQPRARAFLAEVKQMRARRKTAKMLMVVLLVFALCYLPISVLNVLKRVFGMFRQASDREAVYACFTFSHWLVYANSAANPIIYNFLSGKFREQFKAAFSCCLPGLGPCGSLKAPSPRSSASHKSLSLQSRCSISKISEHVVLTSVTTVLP
Description: as §2

PCP = test: Abuse liability binding screen, PCP (antagonist radioligand)
Description: as §2

Na^+ channel (site 2) = test: Abuse liability binding screen, Na+ channel (site 2) (antagonist radioligand)
Description: as §2

[1] = target: Norepinephrine transporter (h) (Homo sapiens, UniProt P23975); test: Abuse liability binding screen, Norepinephrine transporter (h) (antagonist radioligand)
Chain of Norepinephrine transporter (h) (P23975 whole entry): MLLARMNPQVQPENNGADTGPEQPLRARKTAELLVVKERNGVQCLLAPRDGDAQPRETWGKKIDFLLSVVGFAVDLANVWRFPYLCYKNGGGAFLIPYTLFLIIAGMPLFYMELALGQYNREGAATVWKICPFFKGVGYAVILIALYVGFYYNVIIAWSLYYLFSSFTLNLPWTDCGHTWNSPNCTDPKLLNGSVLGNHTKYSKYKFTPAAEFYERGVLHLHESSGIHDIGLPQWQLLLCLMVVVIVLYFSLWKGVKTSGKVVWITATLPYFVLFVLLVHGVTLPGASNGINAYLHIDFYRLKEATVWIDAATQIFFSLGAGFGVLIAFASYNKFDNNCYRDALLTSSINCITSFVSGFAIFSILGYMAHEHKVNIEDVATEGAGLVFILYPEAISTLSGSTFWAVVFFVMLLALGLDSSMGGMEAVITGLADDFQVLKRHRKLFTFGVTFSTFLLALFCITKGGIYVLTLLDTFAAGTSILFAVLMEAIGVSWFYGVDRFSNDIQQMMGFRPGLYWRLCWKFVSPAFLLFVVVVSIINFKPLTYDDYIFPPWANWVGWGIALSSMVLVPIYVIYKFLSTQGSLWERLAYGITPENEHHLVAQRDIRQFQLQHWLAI
Description: as §1, §2, §3

For O=C(O)[C@H]1O[C@@H](Oc2ccc3c4c2O[C@H]2[C@@H](O)CC[C@@]5(O)[C@@H](C3)N(CC3CCC3)CC[C@]425)[C@H](O)[C@@H](O)[C@@H]1O [Compound M5, nalbuphine-3-beta-D-glucuronid], the “% Inhibition of Control Specific Binding 1st” value (α2C (h)) was 12.1%, the “% Inhibition of Control Specific Binding 2nd” value (α2C (h)) was 6.5% and the “% Inhibition of Control Specific Binding Mean” value (α2C (h)) was 9.3%. The “% Inhibition of Control Specific Binding 1st” value (M5 (h)) was 9.9%, the “% Inhibition of Control Specific Binding 2nd” value (M5 (h)) was 0.7% and the “% Inhibition of Control Specific Binding Mean” value (M5 (h)) was 5.3%. For the same molecule, the “% Inhibition of Control Specific Binding 1st” value (N neuronal α7 (h)) was −6.0%, the “% Inhibition of Control Specific Binding 2nd” value (N neuronal α7 (h)) was −0.4% and the “% Inhibition of Control Specific Binding Mean” value (N neuronal α7 (h)) was −3.2%. The “% Inhibition of Control Specific Binding 1st” value (δ2 (DOP) (h)) was 13.9%, the “% Inhibition of Control Specific Binding 2nd” value (δ2 (DOP) (h)) was 18.2% and the “% Inhibition of Control Specific Binding 1st” value (OX1 (h)) was 5.5%. For the same molecule, the “% Inhibition of Control Specific Binding 2nd” value (OX1 (h)) was −1.5%, the “% Inhibition of Control Specific Binding Mean” value (OX1 (h)) was 2.0% and the “% Inhibition of Control Specific Binding 1st” value (PCP) was −1.1%. For the same molecule, the “% Inhibition of Control Specific Binding 2nd” value (PCP) was 4.9%, the “% Inhibition of Control Specific Binding Mean” value (PCP) was 1.9% and the “% Inhibition of Control Specific Binding 1st” value (Na^+ channel (site 2)) was −2.1%. The “% Inhibition of Control Specific Binding 2nd” value (Na^+ channel (site 2)) was 24.8%, the “% Inhibition of Control Specific Binding Mean” value (Na^+ channel (site 2)) was 11.4% and the “% Inhibition of Control Specific Binding 1st” value [1] was −11.4%. The “% Inhibition of Control Specific Binding 2nd” value [1] was 3.2% and the “% Inhibition of Control Specific Binding Mean” value [1] was −4.1%.
